Measured values published in US20160280651A1, “COMPOUNDS THAT INDUCE ABA RESPONSES” (THE REGENTS OF THE UNIVERSITY OF CALIFORNIA, priority 2013, published 2016).

Assays:
[1] = system: ABI1 with PYR/PYL receptors; assay: Receptor-mediated PP2C inhibition assay with ABI1, Example 1; assay type: biochemical, Arabidopsis; details: 10 μM; receptors PYR1, PYL1, PYL2, PYL3 and PYL5
Procedure: (§1) FIG. 2A-FIG. 2C. Novel ABA agonists inhibit PPC2 activity through multiple PYR/PYL. (A) Chemical structure of naturally occurring (+)-ABA and selected ABA agonists. (B) and (C) HAB1, ABU, and ABI2 PP2C enzyme activity based ABA-agonist assays for various receptors in the presence or absence of 10 μM each test chemical.
(§2) HAB1 and PYL proteins were expressed and purified as described previously (Park S Y, et al. (2009) Abscisic Acid Inhibits Type 2C Protein Phosphatases via the PYR/PYL Family of START Proteins. Science 324(5930):1068-1071), with minor modifications. To obtain GST-HAB1, -ABI1 and -ABI2 fusion proteins, the HAB1 cDNA was cloned into pGex-2T whereas ABI1 and ABI2 cDNAs were cloned into the vector pGex-4T-1. […] After 16 hours incubation at 15° C., cells were harvested and recombinant proteins were purified on glutathione agarose as described previously (Park S Y, et al. (2009). To obtain 6×His-PYL receptor fusion proteins, receptor cDNAs for all 13 ABA receptors were cloned into the vector pET28 and expressed and purified as described previously (Mosquna A, et al. (2011) Potent and selective activation of abscisic acid receptors in vivo by mutational stabilization of their agonist-bound conformation. PNAS 108(51):20838-20843); this yielded soluble and functional protein (assessed using receptor-mediated PP2C inhibition assays) for all receptors except PYL7, PYL11 and PYL12. […]

[2] = system: ABI2 with PYR/PYL receptors; assay: Receptor-mediated PP2C inhibition assay with ABI2, Example 1; assay type: biochemical, Arabidopsis; details: 10 μM; receptors PYR1, PYL1, PYL2, PYL3 and PYL5
Procedure: as §1, §2

Arabidopsis plants [3] = assay: Transpirational water loss of detached leaves; assay type: in vivo; details: 25 μM spray
Procedure: (§3) Physiological assays were performed on Arabidopsis plants grown at 22±2° C. and relative humidity (RH) 45±10% under a 16/8-h light/dark cycle. For transpirational water loss analyses in Arabidopsis, plants were pre-treated by aerosol spray of 4 ml solution containing 25 μM compound and 0.05% Tween-20. 12 4-week old plants were sprayed per compound or control analyzed. After overnight pre-treatment with compounds, the aerial portions were detached from roots, and their fresh weight measured at 20 min intervals over a 2 hour time period. To measure stomatal aperture, plants were pre-treated with compounds as described above, covered with plastic lids to maintain high RH and after overnight pre-treatment leaf epidermal impressions were obtained using Suzuki's Universal Micro-Printing (SUMP) method using SUMP impression solution with SUMP B plates (SUMP Laboratory). The leaf impressions were analyzed by light microscopy and stomatal apertures were determined from the pore widths using ImageJ 1.43v software (National Institutes of Health, USA). […] Pots were covered in Parafilm to so that the water loss measured was transpiration mediated. Soil water content % was determined by measuring pot weight and computed by removing dry soil weight from total weight.

Arabidopsis plants [4] = assay: Stomatal aperture measurement; assay type: in vivo; details: wild-type, aba2 and abi1-1; 25 μM spray
Procedure: as §3

HVA1 and HvDRF1 = assay: Quantitative RT-PCR of ABA-responsive genes in barley; assay type: in vivo
Description: FIG. 13A-FIG. 13E. LC66C6 modulates ABA responses in diverse species. Germination inhibition (A) and transpirational water loss in detached leaves 2-hours after detachment (B) in response to compounds shown. The expression of ABA-responsive marker genes in Soybean (C), Barley (D) and Maize (E) after application of chemicals. D, P, L and A indicate DMSO, pyrabactin, LC66C6 and (+)-ABA, respectively.
Total RNA was isolated using Plant RNA purification reagent (Invitrogen, USA) according to the manufacturer's instructions. cDNA was synthesized from 1 μg of total RNA using the QantiTec reverse transcription kit (Qiagen, USA). Real-time PCR using Maxima® SYBR Green/Fluorescein qPCR Master Mix (Fermentas) was performed with the iQ5 real-time PCR detection system (Bio-Rad, Hercules, Calif.). The relative amounts of target mRNAs were determined using the relative standard curve method and were normalized by relative amount of internal control mRNA. Biological triplicate experiments were performed.

ABA-responsive genes = assay: ABA-responsive gene expression in moss; assay type: in vivo, Physcomitrella patens; details: 200 μM for 3 h
Procedure: FIG. 17A-FIG. 17D. The effect of ABA and its agonists in Physcomitrella patens and Chlamydomonas. Protonemal growth images (A) and quantitative analysis (B) of the effects of ABA and agonists on Phsycomitrella patens. Protonema were grown on 200 μM of specific test chemical for 10 days. […] Pyrabactin bleached protonema. (C) The expression of ABA-responsive genes of Physcomitrella patens. Protonema were treated with 200 μM chemical solutions for 3 h. (D) Colony growth of Chlamydomonas on the chemical with salinity stress and osmotic stress. There was no effect of ABA and LC66C6 on the Chlamydomonas growth with and without stresses.

## CCCN1C(=O)CCc2cc(NS(=O)(=O)Cc3ccc(C)cc3)ccc21 [LC66C6]
[1]
  PP2C inhibition of ABI1: > 70%
[2]
  PP2C inhibition of ABI2: > 70%
Arabidopsis plants [3]; abi1-1 mutant
  Transpirational water loss in detached leaves: did not reduce transpirational water loss
Arabidopsis plants [3]; wild-type and aba2 mutant
  Transpirational water loss in detached leaves: reduced the amount of transpirational water loss
Arabidopsis plants [4]
  Stomatal closure: induces stomatal closure in wild-type and the aba2 mutant, but not in the abi1-1 mutant
HVA1 and HvDRF1
  Expression of ABA-responsive genes HVA1 and HvDRF1: moderately induces
ABA-responsive genes
  Expression of ABA-responsive genes in moss: can induce the expression of ABA-responsive genes in moss
